This note sets out measurements from the supplement of paper PMC12592484.

Common to all, as to assay: drug sensitivity score (DSS2, normalised partial AUC of dose-response, 72 h CellTiter-Glo viability) (DSS (dimensionless)); higher = more sensitive (stronger growth inhibition / cytotoxicity); extreme values may be limits of the assay
For orientation: ATP-based viability assays read luminescence as a measure of living cells.

Test [1] relates to CAF#6 (primary prostate cancer-associated fibroblasts of iCAF-like type). In outline:
(§1)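 The drug sensitivity score reported here is a partial area under the fitted logistic dose–response curve, divided by the log of the curve's upper asymptote and computed in BREEZE; higher values denote greater sensitivity. Low-passage primary prostate cancer-associated fibroblasts, PF179T, WPMY-1, LNCaP and 22Rv1 cells were seeded into 384-well plates preloaded with compounds at five doses across a 10,000-fold range. CellTiter-Glo 2.0 luminescence gave viability at 72 h, scaled to vehicle and positive-control wells.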

Test [2] deals with CAF#7 (primary prostate cancer-associated fibroblasts of myCAF-like type). Summed up:
as §1

The subject of test [3] is CAF#5 (primary prostate cancer-associated fibroblasts of myCAF-like type). In outline:
as §1

For test [4], the system named is WPMY-1. In outline: as §1
Test [5] has as its system LNCAP. Summed up: as §1
Test [6] has as its system 22Rv1. In outline: as §1
Test [7] concerns CAF#2 (primary prostate cancer-associated fibroblasts of iCAF-like type). Summed up:
as §1

Test [8] concerns CAF#1 (primary prostate cancer-associated fibroblasts of myCAF-like type). Summed up:
as §1

Test [9] deals with CAF#3 (primary prostate cancer-associated fibroblasts of myCAF-like type). Summed up: as §1
In test [10] the test system is PF179T. Summed up: as §1
Test [11] relates to CAF#4 (primary prostate cancer-associated fibroblasts of iCAF-like type). In outline: as §1

Molecules are shown by their SMILES.

Consider `CC(C)Oc1ccc(C(=O)N[C@H](CNC(=O)CN(C)C)Cc2ccc(-c3cn4cccc([C@H](C)O)c4n3)cc2)cc1Cl` (tested concentration range 1-10000 nM), for which the drug sensitivity score in test [1] turned out to be 3.2; in test [2] it was 2.4; in [3] it was 3; in test [4], 24.5; in test [5] it was 19.1; in [6], 10.9. The drug sensitivity score in test [7] was 9.8; in test [8], 1.4; in test [9], 2.5; in test [10], 9; in test [11], 5.5.
Take `CC[C@@H]1[C@H](F)C(=O)N[C@@H]1COc1nccc2cc(C(N)=O)c(OC)cc12` (tested concentration range 1-10000 nM): the drug sensitivity score was 0 in [1]; 0.1 in test [2]; 0 in test [3]; 0 in [4]; 1.6 in test [5]; 1.4 in [6]. Besides, the drug sensitivity score in [7] was found to be 0.4; in [8], 0; in test [9], 0; in test [10], 0; in [11] it was 0.
`CCn1c(-c2nonc2N)nc2c(C#CC(C)(C)O)ncc(OC[C@H]3CCCNC3)c21` (tested concentration range 1-10000 nM): the drug sensitivity score in [1] was found to be 0; in test [2], 0; in [3] it was 1.6; in test [4], 0; in [5] it was 25.7; in [6] it was 5.4. Moreover, the drug sensitivity score in test [7] was 3.3; in test [8], 3.8; in [9], 0; in [10] it was 1.9; in [11], 1.2.
For the molecule `CCn1c(-c2nonc2N)nc2cnc(Oc3cccc(NC(=O)c4ccc(OCCN5CCOCC5)cc4)c3)cc21` (tested concentration range 1-10000 nM), the drug sensitivity score in [1] came out at 2.8; in test [2], 4.7; in [3], 1.2; in test [4] it was 6.8; in test [5], 8.1; in test [6], 4.7. The drug sensitivity score in [7] amounted to 3.3; in [8], 3.2; in test [9], 0.2; in test [10], 0.9; in test [11], 0.6.
For `CN(C)CC#Cc1ccc(OCCCc2sc(N3CCc4cccc(C(=O)Nc5nc6ccccc6s5)c4C3)nc2C(=O)O)c(F)c1` (tested concentration range 1-10000 nM), the drug sensitivity score in [1] is 5.6; in test [2], 4.1; in test [3] it was 3.2; in test [4], 1.4; in test [5], 6.1; in test [6] it was 0. The drug sensitivity score in test [7] worked out at 2.3; in test [8], 2.7; in test [9] it was 0.2; in test [10] it was 0; in [11], 14.4.
For the molecule `CN1CCN(C2CCC(n3cc(-c4ccc(Oc5ccccc5)cc4)c4c(N)ncnc43)CC2)CC1` (stereo not drawn) (tested concentration range 1-10000 nM), the drug sensitivity score in test [1] worked out at 11.7; in test [2], 16.6; in [3], 11.5; in [4], 10.1; in test [5], 8.3; in [6], 9.1. Besides, the drug sensitivity score in test [7] is 14.6; in test [8] it was 12.2; in test [9] it was 11.2; in test [10], 9.3; in test [11] it was 13.6.
Consider `CNc1nc(-c2ccc3c(N)n[nH]c3c2)cc(N2C[C@@H](C(=O)NC3CCCCC3)CC[C@H]2C)n1` (tested concentration range 1-10000 nM), for which the drug sensitivity score in test [1] was determined as 4; in test [2], 3.8; in test [3], 5.8; in [4], 1.4; in test [5], 7.5; in [6], 6.4. In addition, the drug sensitivity score in test [7] came out at 1.1; in [8], 4; in test [9] it was 6.6; in test [10], 0; in test [11], 2.4.
Turning to `CNc1ncc2cc(-c3cc(NC(=O)NCCC(C)(C)C)c(F)cc3C)c(C)nc2n1` (tested concentration range 1-10000 nM), the drug sensitivity score in [1] was 6.3; in [2], 8; in test [3], 7.2; in test [4], 5.6; in test [5], 10.4; in test [6] it was 8.5. For the same molecule, the drug sensitivity score in test [7] is 11; in test [8] it was 7.4; in test [9], 1.6; in test [10], 6.7; in test [11] it was 9.2.
Turning to `COc1ccc(Cn2ccc3ccc(C(=O)NO)cc32)cc1` (tested concentration range 1-10000 nM), the drug sensitivity score in [1] is 4.1; in test [2], 4; in [3], 1.4; in test [4], 2.8; in [5], 5.5; in [6], 2.8. Further, the drug sensitivity score in test [7] was found to be 3.1; in test [8], 2.8; in test [9], 2.9; in test [10], 4.8; in [11], 1.4.
Take `C[C@@]1(C(=O)Nc2ccc(F)nc2)CCCN1c1nc(Nc2cc(C3CC3)n[nH]2)c2cccn2n1` (tested concentration range 1-10000 nM): the drug sensitivity score in test [1] turned out to be 8.7; in [2], 10.5; in [3], 10.7; in test [4], 15.6; in [5], 6.4; in test [6], 12.4. Further, the drug sensitivity score in [7] amounted to 12.2; in test [8] it was 10.4; in test [9], 9; in test [10], 9.4; in test [11] it was 7.9.
Regarding `C[C@H]1C[C@@H](n2c(Nc3ccc(OC(F)(F)F)cc3)nc3cc(CCC(=O)O)ccc32)CC(C)(C)C1` (tested concentration range 1-10000 nM), the drug sensitivity score in test [1] was determined as 0; in [2], 0; in [3], 0; in test [4], 0; in test [5], 0.4; in test [6], 0. The drug sensitivity score in [7], in test [8], in test [9], in [10] and in test [11] was 0 throughout.
Turning to `Cc1c(Cn2c(C)nc3c(C(=O)O)cc(N4CCOCC4)cc32)cccc1C(F)(F)F` (tested concentration range 1-10000 nM), the drug sensitivity score in test [1] stood at 2.1; in [2], 5.1; in test [3], 0.1; in test [4], 0; in test [5], 12.4; in test [6] it was 0. The drug sensitivity score amounted to 0.4 in test [7]; 2.6 in [8]; 6.2 in [9]; 2.1 in [10]; 1.3 in test [11].
`Cn1cc(-c2ccc(F)c(C(F)(F)F)c2)nc1C1CCN(c2ncnc3[nH]ncc23)CC1` (tested concentration range 1-10000 nM): the drug sensitivity score worked out at 0.5 in test [1]; 0.4 in test [2]; 1.5 in test [3]; 0 in [4]; 7.1 in test [5]; 2.3 in test [6]. Moreover, the drug sensitivity score in test [7] amounted to 1; in test [8] it was 1.3; in [9], 0; in [10], 0; in [11], 1.4.
